Laboratory results taken from patent US20250122181A1, “BENZIMIDAZOLES AS MODULATORS OF IL-17” (Janssen Pharmaceutica NV, priority 2021, published 2025).

Columns and labels:
[1] = test system: IL-17A-induced G-CSF production in human normal keratinocyte (NHK); test: NHK Assay: IL-17A-induced G-CSF production in human normal keratinocyte; type: cell-based; conditions: Homo sapiens, Keratinocyte, 24 h, IL-17A 5 ng/mL, simple average if tested more than once
How it was run: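 Stimulus rhIL-17A 5 ng/mL final, premixed 1 h rt with compound; adult NHK, 5% FBS, 0.2% DMSO. Viability by CellTiter-Glo vs DMSO.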

[2] = target: IL-17A(FLAG-Tagged): IL-17RA(His-Tagged) (Homo sapiens, UniProt Q16552, K93Q); test: IL-17A(FLAG-Tagged): IL-17RA(His-Tagged) Binding Disruption Eu-HTRF Assay, Protocol 1; conditions: Protocol 1, FLAG tagged IL-17A 2.5 nM; simple average if tested more than once
Chain of UniProt Q16552 (Q16552 with tags, fused parts or gaps K93Q): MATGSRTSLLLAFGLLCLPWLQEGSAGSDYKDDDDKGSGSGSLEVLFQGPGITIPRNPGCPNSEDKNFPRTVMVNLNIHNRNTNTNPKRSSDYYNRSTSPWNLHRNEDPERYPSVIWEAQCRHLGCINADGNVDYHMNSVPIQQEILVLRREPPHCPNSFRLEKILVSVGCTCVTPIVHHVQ
How it was run: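 IC50 came from a one-site competition fit of the acceptor/donor (665/620 nm) HTRF ratio. His-tagged IL-17RA, Eu-anti-FLAG and D2-anti-His were added after a 1 h rt compound preincubation with FLAG-tagged IL-17A dimer in PBS/0.01% Triton X-100, followed by 2 h at rt before reading.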

Row | Compound | IC50 [1] | IC50 [2]
1 | Cc1nonc1C(=O)NC(COC(C)(C)C(F)(F)F)c1nc2cc([C@@H](COC3CC3)N3CC(F)(F)CNC3=O)ccc2[nH]1 (single isomer, unassigned) [Example 56, N—((R*)-1-(5-((S)-2-Cyclopropoxy-1-(5,5-difluoro-2-oxotetrahydropyrimidin-1(2H)-yl)ethyl)-1H-benzo[d]imidazol-2-yl)-2-((1,1,1-trifluoro-2-methylpropan-2-yl)oxy)ethyl)-4-methyl-1,2,5-oxadiazole-3-carboxamide] | < 50 nM | < 50 nM
2 | CC(C)(OC[C@H](NC(=O)c1nonc1C1CC1)c1nc2cc(CN3CC(C(F)(F)F)NC3=O)ccc2[nH]1)C(F)(F)F (stereo in doubt) [Example 33, 4-Cyclopropyl-N—((R)-1-(5-(((R*)-2-oxo-4-(trifluoromethyl)imidazolidin-1-yl)methyl)-1H-benzo[d]imidazol-2-yl)-2-((1,1,1-trifluoro-2-methylpropan-2-yl)oxy)ethyl)-1,2,5-oxadiazole-3-carboxamide] | > 100 nM | 50 to 100 nM
3 | CC(C)(OC[C@H](NC(=O)c1nonc1C1CC1)c1nc2cc([C@@H](C3CC3)N3C[C@@H](C(F)(F)F)NC3=O)ccc2[nH]1)C(F)(F)F [Example 1, 4-Cyclopropyl-N—((R)-1-(5-((R)-cyclopropyl((S)-2-oxo-4-(trifluoromethyl)imidazolidin-1-yl)methyl)-1H-benzo[d]imidazol-2-yl)-2-((1,1,1-trifluoro-2-methylpropan-2-yl)oxy)ethyl)-1,2,5-oxadiazole-3-carboxamide] | < 50 nM | < 50 nM
4 | Cc1nonc1C(=O)N[C@@H](COC(C)(C)C(F)(F)F)c1nc2cc([C@@H](C3CC3)N3C[C@@H](C(F)(F)F)NC3=O)ccc2[nH]1 [Example 2, N—((R)-1-(5-((R)-Cyclopropyl((S)-2-oxo-4-(trifluoromethyl)imidazolidin-1-yl)methyl)-1H-benzo[d]imidazol-2-yl)-2-((1,1,1-trifluoro-2-methylpropan-2-yl)oxy)ethyl)-4-methyl-1,2,5-oxadiazole-3-carboxamide] | < 50 nM | < 50 nM
5 | CC(C)n1ncc(F)c1C(=O)N[C@@H](COC(C)(C)C(F)(F)F)c1nc2cc([C@@H](C3CC3)N3C[C@@H](C(F)(F)F)NC3=O)ccc2[nH]1 [Example 3, N—((R)-1-(5-((R)-Cyclopropyl((S)-2-oxo-4-(trifluoromethyl)imidazolidin-1-yl)methyl)-1H-benzo[d]imidazol-2-yl)-2-((1,1,1-trifluoro-2-methylpropan-2-yl)oxy)ethyl)-4-fluoro-1-isopropyl-1H-pyrazole-5-carboxamide] | < 50 nM | < 50 nM
6 | [2H]C([2H])([2H])C([2H])([2H])n1nccc1C(=O)N[C@@H](COC(C)(C)C(F)(F)F)c1nc2cc([C@@H](C3CC3)N3C[C@@H](C(F)(F)F)NC3=O)ccc2[nH]1 [Example 4, N—((R)-1-(5-((R)-Cyclopropyl((S)-2-oxo-4-(trifluoromethyl)imidazolidin-1-yl)methyl)-1H-benzo[d]imidazol-2-yl)-2-((1,1,1-trifluoro-2-methylpropan-2-yl)oxy)ethyl)-1-(ethyl-d5)-1H-pyrazole-5-carboxamide] | < 50 nM | < 50 nM
7 | CC(C)n1ncnc1C(=O)N[C@@H](COC(C)(C)C(F)(F)F)c1nc2cc([C@@H](C3CC3)N3C[C@@H](C(F)(F)F)NC3=O)ccc2[nH]1 [Example 5, N—((R)-1-(5-((R)-Cyclopropyl((S)-2-oxo-4-(trifluoromethyl)imidazolidin-1-yl)methyl)-1H-benzo[d]imidazol-2-yl)-2-((1,1,1-trifluoro-2-methylpropan-2-yl)oxy)ethyl)-1-isopropyl-1H-1,2,4-triazole-5-carboxamide] | < 50 nM | < 50 nM
8 | CC(C)(OC[C@H](NC(=O)c1nonc1C1CC1)c1nc2cc([C@@H](C3CC3)N3CC(F)(F)CNC3=O)ccc2[nH]1)C(F)(F)F [Example 22, 4-Cyclopropyl-N—((R)-1-(5-((R)-cyclopropyl(5,5-difluoro-2-oxotetrahydropyrimidin-1(2H)-yl)methyl)-1H-benzo[d]imidazol-2-yl)-2-((1,1,1-trifluoro-2-methylpropan-2-yl)oxy)ethyl)-1,2,5-oxadiazole-3-carboxamide] | < 50 nM | < 50 nM
9 | Cc1nonc1C(=O)N[C@@H](COC(C)(C)C(F)(F)F)c1nc2cc([C@@H](C3CC3)N3CC(F)(F)CNC3=O)ccc2[nH]1 [Example 23, N—((R)-1-(5-((R)-Cyclopropyl(5,5-difluoro-2-oxotetrahydropyrimidin-1(2H)-yl)methyl)-1H-benzo[d]imidazol-2-yl)-2-((1,1,1-trifluoro-2-methylpropan-2-yl)oxy)ethyl)-4-methyl-1,2,5-oxadiazole-3-carboxamide] | < 50 nM | < 50 nM
10 | CC(C)n1nccc1C(=O)N[C@@H](COC(C)(C)C(F)(F)F)c1nc2cc([C@@H](C3CC3)N3CC(F)(F)CNC3=O)ccc2[nH]1 [Example 24, N—((R)-1-(5-((R)-Cyclopropyl(5,5-difluoro-2-oxotetrahydropyrimidin-1(2H)-yl)methyl)-1H-benzo[d]imidazol-2-yl)-2-((1,1,1-trifluoro-2-methylpropan-2-yl)oxy)ethyl)-1-isopropyl-1H-pyrazole-5-carboxamide] | < 50 nM | < 50 nM
11 | Cc1nonc1C(=O)N[C@@H](COC(C)(C)C(F)(F)F)c1nc2ccc(CN3CC(F)(F)CNC3=O)cc2[nH]1 [Example 28, (R)—N-(1-(6-((5,5-Difluoro-2-oxotetrahydropyrimidin-1(2H)-yl)methyl)-1H-benzo[d]imidazol-2-yl)-2-((1,1,1-trifluoro-2-methylpropan-2-yl)oxy)ethyl)-4-methyl-1,2,5-oxadiazole-3-carboxamide] | < 50 nM | < 50 nM
12 | CC(C)n1nccc1C(=O)N[C@@H](COC(C)(C)C(F)(F)F)c1nc2ccc(CN3CC(F)(F)CNC3=O)cc2[nH]1 [Example 29, (R)—N-(1-(6-((5,5-Difluoro-2-oxotetrahydropyrimidin-1(2H)-yl)methyl)-1H-benzo[d]imidazol-2-yl)-2-((1,1,1-trifluoro-2-methylpropan-2-yl)oxy)ethyl)-1-isopropyl-1H-pyrazole-5-carboxamide] | < 50 nM | < 50 nM
13 | CC(C)(OC[C@H](NC(=O)c1nonc1C1CC1)c1nc2ccc(CN3CC(F)(F)CNC3=O)cc2[nH]1)C(F)(F)F [Example 30, (R)-4-Cyclopropyl-N-(1-(6-((5,5-difluoro-2-oxotetrahydropyrimidin-1(2H)-yl)methyl)-1H-benzo[d]imidazol-2-yl)-2-((1,1,1-trifluoro-2-methylpropan-2-yl)oxy)ethyl)-1,2,5-oxadiazole-3-carboxamide] | < 50 nM | < 50 nM
14 | COC[C@H](c1ccc2[nH]c([C@@H](NC(=O)c3nonc3C)[C@@H](C)O[C@@H](C)C(F)(F)F)nc2c1)N1CC(F)(F)CNC1=O [Example 50, N-((1R,2R)-1-(5-((S)-1-(5,5-Difluoro-2-oxotetrahydropyrimidin-1(2H)-yl)-2-methoxyethyl)-1H-benzo[d]imidazol-2-yl)-2-(((S)-1,1,1-trifluoropropan-2-yl)oxy)propyl)-4-methyl-1,2,5-oxadiazole-3-carboxamide] | < 50 nM | < 50 nM
15 | COC[C@H](c1ccc2[nH]c([C@@H](NC(=O)c3nonc3C)[C@@H](C)O[C@@H](C)C(F)(F)F)nc2c1)N1C[C@@H](C(F)(F)F)NC1=O [Example 62, N-((1R,2R)-1-(5-((S)-2-Methoxy-1-((S)-2-oxo-4-(trifluoromethyl)imidazolidin-1-yl)ethyl)-1H-benzo[d]imidazol-2-yl)-2-(((S)-1,1,1-trifluoropropan-2-yl)oxy)propyl)-4-methyl-1,2,5-oxadiazole-3-carboxamide] | < 50 nM | < 50 nM
16 | Cc1nonc1C(=O)N[C@@H](COC(C)(C)C(F)(F)F)c1nc2cc([C@@H](C3CC3)N3C[C@@H](C4CC4)NC3=O)ccc2[nH]1 [Example 84, N—((R)-1-(5-((R)-Cyclopropyl((R)-4-cyclopropyl-2-oxoimidazolidin-1-yl)methyl)-1H-benzo[d]imidazol-2-yl)-2-((1,1,1-trifluoro-2-methylpropan-2-yl)oxy)ethyl)-4-methyl-1,2,5-oxadiazole-3-carboxamide] | < 50 nM | < 50 nM
17 | CC(C)n1nccc1C(=O)N[C@H](c1nc2c(F)cc([C@@H](C3CC3)N3C[C@@H](C(F)(F)F)NC3=O)cc2[nH]1)[C@@H](C)O[C@H](C)C(F)(F)F [Example 85, N-[(1R,2R)-1-[6-[(R)-Cyclopropyl-[(4S)-2-oxo-4-(trifluoromethyl)imidazolidin-1-yl]methyl]-4-fluoro-1H-benzimidazol-2-yl]-2-[(1R)-2,2,2-trifluoro-1-methyl-ethoxy]propyl]-2-isopropyl-pyrazole-3-carboxamide] | < 50 nM | 50 to 100 nM
18 | Cc1nonc1C(=O)N[C@@H](COC(C)(C)C(F)(F)F)c1nc2cc([C@@H](C3CC3)N3CC4(CC4)NC3=O)ccc2[nH]1 [Example 87, N—((R)-1-(5-((R)-Cyclopropyl(5-oxo-4,6-diazaspiro[2.4]heptan-6-yl)methyl)-1H-benzo[d]imidazol-2-yl)-2-((1,1,1-trifluoro-2-methylpropan-2-yl)oxy)ethyl)-4-methyl-1,2,5-oxadiazole-3-carboxamide] | < 50 nM | < 50 nM
